Laboratory results from paper PMC5207512, “Inhibition of Helicobacter pylori and Its Associated Urease by Palmatine: Investigation on the Potential Mechanism” (PLoS ONE, 2017).
Where “and” joins values, the source holds several entries; their conditions need not be identical. Identical values can stand only once. Like-named read-outs stand apart in the source and are kept apart here.

Key:
H. pylori urease (HPU) [1] = target: T1, H. pylori urease (HPU) (Helicobacter pylori, UniProt P69996); test: Urease inhibition test (modified Berthelot method); assay type: biochemical; conditions: read-out: Residual activity, Fig 2C HPU; head prints Pal 0.241667 mM; replicates
T1 construct: HPU was prepared as previously described; made in house
Description: (§1) HPU was prepared as previously described. The standard urease assay mixture included 150 mM urea in 20 mM HEPES buffer (pH 7.5). After addition of small aliquots of enzyme-containing solution of urease, the assay ran for 20 min. The enzymatic activity was evaluated spectrophotometrically by detecting the ammonia concentration at 595 nm according to the modified Berthelot (phenol-hypochlorite) method. Urease activity was estimated with JBU as a standard, the specific activity of HPU was determined to be 17.0 U/mg. One unit of urease activity was defined as 1 μmol of ammonia released per min at 25°C. The amount of protein was determined by commercial Bradford Protein Assay Kit with BSA as a standard. The amount of ammonia released was decided from a standard curve. The activity of uninhibited urease was defined as the control activity of 100%.
(§2) Reaction mixtures comprising 0.25 mg/mL HPU or JBU and different concentrations of Pal or AHA at the volume ratio of 1:1, were incubated at 37°C in 20 mM HEPES buffer (pH 7.5) in the absence of urea. The reactions were initiated by mixing the urease and the inhibitor. The preincubation mixture was withdrawn at 20 min and immediately transferred into the standard assay mixtures for urease residual activity determination. Inhibition rate (%) was calculated following the formula: I % = (1-activity with inhibitors/activity without inhibitors) × 100%. The IC50 was expressed as the concentration of inhibitor that decreased urease activity by 50% and calculated by plotting the percent of inhibition. The experiments were triply performed.

jack bean urease (JBU) [2] = target: T2, jack bean urease (JBU) (Canavalia ensiformis, UniProt P07374); test: Urease inhibition test (modified Berthelot method); assay type: biochemical
T2 construct: Urease from jack bean (Canavalia ensiformis, JBU); purchased Sigma-Aldrich (St Louis, MO, USA) type III (catalogue number not given)
Description: as §1, §2

H. pylori urease (HPU) [3] = target: T1, H. pylori urease (HPU); test: biochemical; conditions: read-out: Residual urease activity (percent of control), Fig 4A HPU, Pal 0.5 mM, thiols 1.25 mM, replicates
Description: (§3) For the protection with thiols-containing compounds, the mixture consisting of 0.25 mg/mL urease (HPU or JBU), 0.5 mM Pal (for both HPU and JBU) and 1.25 mM thiols (DTT, GSH and L-cys) was incubated for 5, 10, 20, and 40 min at 37°C, respectively. The control sample instead of the protectors contained a proper volume of respective buffer.

jack bean urease (JBU) [4] = target: T2, jack bean urease (JBU); test: biochemical; conditions: read-out: Residual urease activity (percent of control), Fig 4B JBU, Pal 0.5 mM, thiols 1.25 mM, replicates
Description: as §3

[5] = set-up: method as in PMID 24795799; conditions: cited from earlier work

T2 sequence (P07374 whole entry, looked up): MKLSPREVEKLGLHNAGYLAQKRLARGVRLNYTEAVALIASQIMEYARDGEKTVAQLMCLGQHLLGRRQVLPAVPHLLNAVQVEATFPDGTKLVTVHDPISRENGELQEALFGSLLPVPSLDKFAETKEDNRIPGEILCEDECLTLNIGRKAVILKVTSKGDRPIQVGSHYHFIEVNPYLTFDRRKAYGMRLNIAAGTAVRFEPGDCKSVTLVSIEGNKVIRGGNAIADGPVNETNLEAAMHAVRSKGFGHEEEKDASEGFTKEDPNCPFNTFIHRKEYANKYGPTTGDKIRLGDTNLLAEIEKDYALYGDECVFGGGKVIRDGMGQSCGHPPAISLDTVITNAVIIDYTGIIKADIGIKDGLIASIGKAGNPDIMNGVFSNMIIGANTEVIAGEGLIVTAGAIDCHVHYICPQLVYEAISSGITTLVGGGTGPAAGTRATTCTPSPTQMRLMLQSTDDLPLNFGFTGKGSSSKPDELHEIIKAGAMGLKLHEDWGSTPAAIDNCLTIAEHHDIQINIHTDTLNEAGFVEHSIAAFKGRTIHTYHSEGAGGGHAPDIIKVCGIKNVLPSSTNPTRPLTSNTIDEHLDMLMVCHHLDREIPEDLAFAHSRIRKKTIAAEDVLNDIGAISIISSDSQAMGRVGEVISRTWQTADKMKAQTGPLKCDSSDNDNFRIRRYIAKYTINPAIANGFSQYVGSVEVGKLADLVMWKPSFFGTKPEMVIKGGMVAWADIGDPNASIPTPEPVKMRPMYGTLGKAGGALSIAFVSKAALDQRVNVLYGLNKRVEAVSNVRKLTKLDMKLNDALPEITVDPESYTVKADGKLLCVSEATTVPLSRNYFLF
T1 sequence (P14916 whole entry): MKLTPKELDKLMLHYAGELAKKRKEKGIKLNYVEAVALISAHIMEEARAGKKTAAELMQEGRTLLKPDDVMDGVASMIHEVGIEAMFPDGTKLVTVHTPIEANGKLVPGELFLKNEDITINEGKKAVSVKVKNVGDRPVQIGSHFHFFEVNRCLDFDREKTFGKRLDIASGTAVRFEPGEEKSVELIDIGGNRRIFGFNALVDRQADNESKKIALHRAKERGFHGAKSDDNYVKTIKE
T1 sequence (P69996 whole entry): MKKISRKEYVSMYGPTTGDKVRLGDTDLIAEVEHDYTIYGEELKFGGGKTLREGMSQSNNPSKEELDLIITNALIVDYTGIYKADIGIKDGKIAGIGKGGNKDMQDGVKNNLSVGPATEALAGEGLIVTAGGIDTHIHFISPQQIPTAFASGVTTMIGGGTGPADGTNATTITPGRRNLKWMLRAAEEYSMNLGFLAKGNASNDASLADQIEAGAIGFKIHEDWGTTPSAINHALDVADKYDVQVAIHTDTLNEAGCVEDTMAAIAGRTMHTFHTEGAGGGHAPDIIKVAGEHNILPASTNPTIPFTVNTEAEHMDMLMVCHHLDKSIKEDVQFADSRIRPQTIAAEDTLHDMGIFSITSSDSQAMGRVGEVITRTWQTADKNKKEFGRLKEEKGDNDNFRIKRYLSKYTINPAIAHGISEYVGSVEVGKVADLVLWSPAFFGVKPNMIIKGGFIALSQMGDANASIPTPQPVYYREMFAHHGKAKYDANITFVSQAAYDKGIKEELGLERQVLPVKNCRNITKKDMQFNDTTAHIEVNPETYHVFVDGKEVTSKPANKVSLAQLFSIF

With `COc1cc2c(cc1OC)-c1cc3ccc(OC)c(OC)c3c[n+]1CC2` [Pal, Palmatine] the remaining activity at 241.667 µM (H. pylori urease (HPU) [1]) was 23.2%, the IC50 (jack bean urease (JBU) [2]) was 30 µM and the Residual activity (jack bean urease (JBU) [2]; Fig 2B JBU, Pal 0.0149062 mM, replicates) was 54.1182% and 57.7693%. For the same molecule, the Residual activity (jack bean urease (JBU) [2]; Fig 2B JBU, Pal 0.0298125 mM, replicates) was 50.3004% and 49.1799%, the Residual activity (jack bean urease (JBU) [2]; Fig 2B JBU, Pal 0.059625 mM, replicates) was 40.1092% and 41.6437% and the Residual activity (jack bean urease (JBU) [2]; Fig 2B JBU, Pal 0.11925 mM, replicates) was 37.8863% and 32.26%. For the same molecule, the Residual activity (jack bean urease (JBU) [2]; Fig 2B JBU, Pal 0.2385 mM, replicates) was 38.5515% and 35.644%, the Residual activity (jack bean urease (JBU) [2]; Fig 2B JBU, Pal 0.477 mM, replicates) was 32.5751% and 31.4745% and the Residual activity (jack bean urease (JBU) [2]; Fig 2B JBU, Pal 0.954 mM, replicates) was 26.1588% and 18.0767%. The Residual activity (jack bean urease (JBU) [2]; Fig 2D JBU, head prints Pal 0.00188802 mM, replicates) was 95.2237% and 88.9105%, the Residual activity (jack bean urease (JBU) [2]; Fig 2D JBU, head prints Pal 0.00377605 mM, replicates) was 91.7722% and 82.8804% and the Residual activity (jack bean urease (JBU) [2]; Fig 2D JBU, head prints Pal 0.00755209 mM, replicates) was 77.2806% and 78.6217%. The Residual activity (jack bean urease (JBU) [2]; Fig 2D JBU, head prints Pal 0.0151042 mM, replicates) was 56.6996% and 59.4273%, the Residual activity (jack bean urease (JBU) [2]; Fig 2D JBU, head prints Pal 0.0302084 mM, replicates) was 37.3504% and 39.7719% and the Residual activity (jack bean urease (JBU) [2]; Fig 2D JBU, head prints Pal 0.0604167 mM, replicates) was 24.6949% and 22.6887%. The Residual activity (jack bean urease (JBU) [2]; Fig 2D JBU, head prints Pal 0.120833 mM, replicates) was 12.8879% and 13.7831%, the Residual activity (jack bean urease (JBU) [2]; Fig 2D JBU, head prints Pal 0.241667 mM, replicates) was 10.3312% and 12.3028% and the remaining activity at 14.9062 µM (jack bean urease (JBU) [2]; read-out: Residual activity, Fig 2B JBU, Pal 0.0149062 mM, replicates) was 55.1%. The remaining activity at 29.8125 µM (jack bean urease (JBU) [2]; read-out: Residual activity, Fig 2B JBU, Pal 0.0298125 mM, replicates) was 49%, the remaining activity at 59.625 µM (jack bean urease (JBU) [2]; read-out: Residual activity, Fig 2B JBU, Pal 0.059625 mM, replicates) was 45.6% and the remaining activity at 119.25 µM (jack bean urease (JBU) [2]; read-out: Residual activity, Fig 2B JBU, Pal 0.11925 mM, replicates) was 38.6%. It also gave a remaining activity at 238.5 µM (jack bean urease (JBU) [2]; read-out: Residual activity, Fig 2B JBU, Pal 0.2385 mM, replicates) of 36.2%, a remaining activity at 477 µM (jack bean urease (JBU) [2]; read-out: Residual activity, Fig 2B JBU, Pal 0.477 mM, replicates) of 25.7% and a remaining activity at 954 µM (jack bean urease (JBU) [2]; read-out: Residual activity, Fig 2B JBU, Pal 0.954 mM, replicates) of 27.1%. The remaining activity at 1.88802 µM (jack bean urease (JBU) [2]; read-out: Residual activity, Fig 2D JBU, head prints Pal 0.00188802 mM, replicates) was 94.8%, the remaining activity at 3.77605 µM (jack bean urease (JBU) [2]; read-out: Residual activity, Fig 2D JBU, head prints Pal 0.00377605 mM, replicates) was 88.2% and the remaining activity at 7.55209 µM (jack bean urease (JBU) [2]; read-out: Residual activity, Fig 2D JBU, head prints Pal 0.00755209 mM, replicates) was 75.2%. It also gave a remaining activity at 15.1042 µM (jack bean urease (JBU) [2]; read-out: Residual activity, Fig 2D JBU, head prints Pal 0.0151042 mM, replicates) of 55.4%, a remaining activity at 30.2084 µM (jack bean urease (JBU) [2]; read-out: Residual activity, Fig 2D JBU, head prints Pal 0.0302084 mM, replicates) of 36.9% and a remaining activity at 60.4167 µM (jack bean urease (JBU) [2]; read-out: Residual activity, Fig 2D JBU, head prints Pal 0.0604167 mM, replicates) of 25.4%. It also gave a remaining activity at 120.833 µM (jack bean urease (JBU) [2]; read-out: Residual activity, Fig 2D JBU, head prints Pal 0.120833 mM, replicates) of 15.7%, a remaining activity at 241.667 µM (jack bean urease (JBU) [2]; read-out: Residual activity, Fig 2D JBU, head prints Pal 0.241667 mM, replicates) of 11.3% and a remaining activity at 500 µM (H. pylori urease (HPU) [3]; 5 min incubation) of 68.6%. It also gave a remaining activity at 500 µM (H. pylori urease (HPU) [3]; 10 min incubation) of 62.4%, a remaining activity at 500 µM (H. pylori urease (HPU) [3]; 20 min incubation) of 40.4% and a remaining activity at 500 µM (H. pylori urease (HPU) [3]; 40 min incubation) of 24.2%. It also gave a remaining activity at 500 µM (jack bean urease (JBU) [4]; 5 min incubation) of 30.8%, a remaining activity at 500 µM (jack bean urease (JBU) [4]; 10 min incubation) of 35.2% and a remaining activity at 500 µM (jack bean urease (JBU) [4]; 20 min incubation) of 34.3%. For the same molecule, the remaining activity at 500 µM (jack bean urease (JBU) [4]; 40 min incubation) was 32.7% and the anti-ulcerogenic activity [5] was “better than that of the C. chinensis extract and its active principle berberine”.
